From BindingDB's records for doi:10.1021/jm990281p (Parke-Davis Pharmaceutical Research, 2000)

The molecules below were run against T1, Gag-Pol polyprotein [489-587] (Human immunodeficiency virus 1, UniProt P04585) (assay: Protease Inhibition Assay). Details: not given.
T1 construct: 489-587
Protocol: (§1) Sensitivity of HIV-1 protease activity to protease inhibitors was determined by a peptide substrate cleavage assay. Protease products were analyzed on a reverse-phase high-pressure liquid chromatograph.

Row | SMILES | IC50 [nM]
1 | Cc1cc(SC2C(=O)CC(CCc3ccccc3)(C(C)C)OC2=O)c(C(C)(C)C)cc1NS(=O)(=O)c1cccnc1 (configuration not stated) | 3.5
2 | CCNS(=O)(=O)Oc1cc(C(C)(C)C)c(SC2C(=O)CC(CCc3ccccc3)(C(C)C)OC2=O)cc1C (configuration not stated) | 8.9
3 | Cc1cc(SC2C(=O)CC(CCc3ccc(O)cc3)(C3CCCCC3)OC2=O)c(C(C)(C)C)cc1OS(=O)(=O)Cn1ccnc1 (configuration not stated) | 8
4 | Cc1cc(SC2C(=O)CC(C)(CCc3ccc(O)cc3)OC2=O)c(C(C)(C)C)cc1OS(=O)(=O)Cn1ccnc1 (configuration not stated) | 2
5 | Cc1cc(SC2C(=O)CC(CCc3ccc(O)cc3)(C(C)C)OC2=O)c(C(C)(C)C)cc1OS(=O)(=O)Cn1ccnc1 (configuration not stated) | 2.4
6 | Cc1cc(SC2C(=O)CC(CCc3ccccc3)(C(C)C)OC2=O)c(C(C)(C)C)cc1OS(=O)(=O)Cn1ccnc1 (configuration not stated) | 3
7 | Cc1cc(SC2C(=O)CC(C)(CCc3ccc(O)cc3)OC2=O)c(C(C)(C)C)cc1NS(=O)(=O)Cn1ccnc1 (configuration not stated) | 1.9
8 | Cc1cc(SC2C(=O)CC(CCc3ccc(N)cc3)(C(C)C)OC2=O)c(C(C)(C)C)cc1OS(=O)(=O)c1cccs1 (configuration not stated) | 18.5
9 | CCCC1(CCc2ccc(O)cc2)CC(=O)C(Sc2cc(C)c(OS(=O)(=O)Cn3ccnc3)cc2C(C)(C)C)C(=O)O1 (configuration not stated) | 2.2
10 | Cc1cc(SC2C(=O)CC(CCc3ccc(O)cc3)(CC(C)C)OC2=O)c(C(C)(C)C)cc1OS(=O)(=O)Cn1ccnc1 (configuration not stated) | 3.6
11 | Cc1cc(SC2C(=O)CC(CCc3ccccc3)(C(C)C)OC2=O)c(C(C)(C)C)cc1NS(=O)(=O)Cn1ccnc1 (configuration not stated) | 1.9
12 | Cc1cc(SC2C(=O)CC(C)(CCc3ccc(O)cc3)OC2=O)c(C(C)(C)C)cc1NS(=O)(=O)c1ccc(-c2cccs2)cc1 (configuration not stated) | 6.3
13 | Cc1cc(SC2C(=O)CC(CCc3ccc(N)cc3)(C(C)C)OC2=O)c(C(C)(C)C)cc1OS(=O)(=O)Cn1ccnc1 (configuration not stated) | 2.2
14 | Cc1cc(SC2C(=O)CC(CCc3ccc(N)cc3)(C(C)C)OC2=O)c(C(C)(C)C)cc1OS(=O)(=O)c1cccnc1 (configuration not stated) | 4.1
15 | Cc1cc(SC2C(=O)CC(CCc3ccc(N)cc3)(C(C)C)OC2=O)c(C(C)(C)C)cc1OS(=O)(=O)N(C)C (configuration not stated) [4-({6-[2-(4-aminophenyl)ethyl]-4-hydroxy-2-oxo-6-(propan-2-yl)-5,6-dihydro-2H-pyran-3-yl}sulfanyl)-5-tert-butyl-2-methylphenyl N,N-dimethylsulfamate] | 3.9
16 | CCNS(=O)(=O)Oc1cc(C(C)(C)C)c(SC2C(=O)CC(CCc3ccc(N)cc3)(C(C)C)OC2=O)cc1C (configuration not stated) [4-({6-[2-(4-aminophenyl)ethyl]-4-hydroxy-2-oxo-6-(propan-2-yl)-5,6-dihydro-2H-pyran-3-yl}sulfanyl)-5-tert-butyl-2-methylphenyl N-ethylsulfamate] | 4.3
17 | CCNS(=O)(=O)Oc1cc(C(C)(C)C)c(SC2C(=O)CC(CCc3ccc(O)cc3)(C(C)C)OC2=O)cc1C (configuration not stated) [6-Alkyl-5,6-Dihydropyran-2-one 20] | 4.9
18 | Cc1cc(SC2C(=O)CC(CCc3ccc(O)cc3)(C(C)C)OC2=O)c(C(C)(C)C)cc1OS(=O)(=O)N(C)C (configuration not stated) [6-Alkyl-5,6-Dihydropyran-2-one 22] | 3.4

These molecules were tested against T2, Dimer of Gag-Pol polyprotein [489-587] (Human immunodeficiency virus 1, UniProt P12497) (assay: Protease Inhibition Assay). Details: not given.
T2 construct: 489-587
Protocol: as §1

Row | SMILES | IC50 [nM] | Ki [nM]
19 | Cc1cc(SC2C(=O)CC(CCc3ccccc3)(C(C)C)OC2=O)c(C(C)(C)C)cc1NS(=O)(=O)c1cccnc1 (configuration not stated) | 3.5 | –
20 | Cc1cc(SC2C(=O)CC(CCc3ccc(N)cc3)(C(C)C)OC2=O)c(C(C)(C)C)cc1OS(=O)(=O)c1nccn1C (configuration not stated) [4-({6-[2-(4-aminophenyl)ethyl]-4-hydroxy-2-oxo-6-(propan-2-yl)-5,6-dihydro-2H-pyran-3-yl}sulfanyl)-5-tert-butyl-2-methylphenyl 1-methyl-1H-imidazole-2-sulfonate] | 2.2 | –
21 | Cc1cc(SC2C(=O)CC(CCc3ccc(N)cc3)(C(C)C)OC2=O)c(C(C)(C)C)cc1OS(=O)(=O)c1ccccc1-c1cccs1 (configuration not stated) [4-({6-[2-(4-aminophenyl)ethyl]-4-hydroxy-2-oxo-6-(propan-2-yl)-5,6-dihydro-2H-pyran-3-yl}sulfanyl)-5-tert-butyl-2-methylphenyl 2-(thiophen-2-yl)benzene-1-sulfonate] | 18.5 | –
22 | Cc1cc(SC2C(=O)CC(CCc3ccc(N)cc3)(C(C)C)OC2=O)c(C(C)(C)C)cc1OS(=O)(=O)c1cccc(-c2cccnc2)c1 (configuration not stated) [4-({6-[2-(4-aminophenyl)ethyl]-4-hydroxy-2-oxo-6-(propan-2-yl)-5,6-dihydro-2H-pyran-3-yl}sulfanyl)-5-tert-butyl-2-methylphenyl 3-(pyridin-3-yl)benzene-1-sulfonate] | 4.1 | –
23 | Cc1cc(SC2C(=O)CC(CCc3ccc(O)cc3)(C(C)C)OC2=O)c(C(C)(C)C)cc1OS(=O)(=O)c1nccn1C (configuration not stated) [5-tert-butyl-4-({4-hydroxy-6-[2-(4-hydroxyphenyl)ethyl]-2-oxo-6-(propan-2-yl)-5,6-dihydro-2H-pyran-3-yl}sulfanyl)-2-methylphenyl 1-methyl-1H-imidazole-2-sulfonate] | 2.4 | –
24 | Cc1cc(SC2C(=O)CC(CCc3ccc(O)cc3)(C(C)C)OC2=O)c(C(C)(C)C)cc1OS(C)(=O)=O (configuration not stated) [5-tert-butyl-4-({4-hydroxy-6-[2-(4-hydroxyphenyl)ethyl]-2-oxo-6-(propan-2-yl)-5,6-dihydro-2H-pyran-3-yl}sulfanyl)-2-methylphenyl methanesulfonate] | 2.2 | –
25 | CCCC1(CCc2ccc(O)cc2)CC(=O)C(Sc2cc(C)c(OS(=O)(=O)c3nccn3C)cc2C(C)(C)C)C(=O)O1 (configuration not stated) [5-tert-butyl-4-({4-hydroxy-6-[2-(4-hydroxyphenyl)ethyl]-2-oxo-6-propyl-5,6-dihydro-2H-pyran-3-yl}sulfanyl)-2-methylphenyl 1-methyl-1H-imidazole-2-sulfonate] | 2.2 | –
26 | Cc1cc(SC2C(=O)CC(CCc3ccc(O)cc3)(CC(C)C)OC2=O)c(C(C)(C)C)cc1OS(=O)(=O)c1nccn1C (configuration not stated) [5-tert-butyl-4-({4-hydroxy-6-[2-(4-hydroxyphenyl)ethyl]-6-(2-methylpropyl)-2-oxo-5,6-dihydro-2H-pyran-3-yl}sulfanyl)-2-methylphenyl 1-methyl-1H-imidazole-2-sulfonate] | 3.6 | –
27 | Cc1cc(SC2C(=O)CC(C)(CCc3ccc(O)cc3)OC2=O)c(C(C)(C)C)cc1OS(=O)(=O)c1nccn1C (configuration not stated) [5-tert-butyl-4-({4-hydroxy-6-[2-(4-hydroxyphenyl)ethyl]-6-methyl-2-oxo-5,6-dihydro-2H-pyran-3-yl}sulfanyl)-2-methylphenyl 1-methyl-1H-imidazole-2-sulfonate] | 2 | –
28 | Cc1cc(SC2C(=O)CC(CCc3ccc(O)cc3)(C3CCCCC3)OC2=O)c(C(C)(C)C)cc1OS(=O)(=O)c1nccn1C (configuration not stated) [5-tert-butyl-4-({6-cyclohexyl-4-hydroxy-6-[2-(4-hydroxyphenyl)ethyl]-2-oxo-5,6-dihydro-2H-pyran-3-yl}sulfanyl)-2-methylphenyl 1-methyl-1H-imidazole-2-sulfonate] | 8 | –
29 | Cc1cc(SC2C(=O)CC(CCc3ccccc3)(C(C)C)OC2=O)c(C(C)(C)C)cc1OS(=O)(=O)c1nccn1C (configuration not stated) [5-tert-butyl-4-{[4-hydroxy-2-oxo-6-(2-phenylethyl)-6-(propan-2-yl)-5,6-dihydro-2H-pyran-3-yl]sulfanyl}-2-methylphenyl 1-methyl-1H-imidazole-2-sulfonate] | 3 | –
30 | Cc1cc(SC2C(=O)C[C@](CCc3ccc(O)cc3)(C(C)C)OC2=O)c(C(C)(C)C)cc1N (stereo partly drawn) [(6R)-3-[(4-amino-2-tert-butyl-5-methylphenyl)sulfanyl]-4-hydroxy-6-[2-(4-hydroxyphenyl)ethyl]-6-(propan-2-yl)-5,6-dihydro-2H-pyran-2-one] | – | 13
31 | Cc1cc(SC2C(=O)CC(CCc3ccccc3)(C(C)C)OC2=O)c(C(C)(C)C)cc1NS(=O)(=O)c1nccn1C (configuration not stated) [N-(5-tert-butyl-4-{[4-hydroxy-2-oxo-6-(2-phenylethyl)-6-(propan-2-yl)-5,6-dihydro-2H-pyran-3-yl]sulfanyl}-2-methylphenyl)-1-methyl-1H-imidazole-2-sulfonamide] | 1.9 | –
32 | Cc1cc(SC2C(=O)CC(CCc3ccccc3)(C(C)C)OC2=O)c(C(C)(C)C)cc1NS(=O)(=O)c1ccc(C(F)(F)F)cn1 (configuration not stated) [N-(5-tert-butyl-4-{[4-hydroxy-2-oxo-6-(2-phenylethyl)-6-(propan-2-yl)-5,6-dihydro-2H-pyran-3-yl]sulfanyl}-2-methylphenyl)-5-(trifluoromethyl)pyridine-2-sulfonamide] | – | 1.04
33 | Cc1cc(SC2C(=O)C[C@](CCc3ccccc3)(C(C)C)OC2=O)c(C(C)(C)C)cc1NS(=O)(=O)c1ccc(C(F)(F)F)cn1 (stereo partly drawn) [N-(5-tert-butyl-4-{[(6R)-4-hydroxy-2-oxo-6-(2-phenylethyl)-6-(propan-2-yl)-5,6-dihydro-2H-pyran-3-yl]sulfanyl}-2-methylphenyl)-5-(trifluoromethyl)pyridine-2-sulfonamide] | – | 6.4
34 | Cc1cc(SC2C(=O)C[C@](CCc3ccc(O)cc3)(C(C)C)OC2=O)c(C(C)(C)C)cc1NS(=O)(=O)c1ccc(C(F)(F)F)cn1 (stereo partly drawn) [N-(5-tert-butyl-4-{[(6R)-4-hydroxy-6-[2-(4-hydroxyphenyl)ethyl]-2-oxo-6-(propan-2-yl)-5,6-dihydro-2H-pyran-3-yl]sulfanyl}-2-methylphenyl)-5-(trifluoromethyl)pyridine-2-sulfonamide] | – | 9.54

Same assay, conditions: pH 6.2; 37 °C

Row | SMILES | IC50 [nM]
35 | Cc1cc(SC2C(=O)CC(CCc3ccccc3)(C(C)C)OC2=O)c(C(C)(C)C)cc1NS(=O)(=O)c1ccc(C#N)cc1 (configuration not stated) [N-(5-tert-butyl-4-{[4-hydroxy-2-oxo-6-(2-phenylethyl)-6-(propan-2-yl)-5,6-dihydro-2H-pyran-3-yl]sulfanyl}-2-methylphenyl)-4-cyanobenzene-1-sulfonamide] | 9.1
36 | Cc1cc(SC2C(=O)CC(C)(CCc3ccc(O)cc3)OC2=O)c(C(C)(C)C)cc1NS(=O)(=O)c1nccn1C (configuration not stated) [N-[5-tert-butyl-4-({4-hydroxy-6-[2-(4-hydroxyphenyl)ethyl]-6-methyl-2-oxo-5,6-dihydro-2H-pyran-3-yl}sulfanyl)-2-methylphenyl]-1-methyl-1H-imidazole-2-sulfonamide] | 1.9
37 | Cc1cc(SC2C(=O)CC(C)(CCc3ccc(O)cc3)OC2=O)c(C(C)(C)C)cc1NS(=O)(=O)c1cccc(-c2cccs2)c1 (configuration not stated) [N-[5-tert-butyl-4-({4-hydroxy-6-[2-(4-hydroxyphenyl)ethyl]-6-methyl-2-oxo-5,6-dihydro-2H-pyran-3-yl}sulfanyl)-2-methylphenyl]-3-(thiophen-2-yl)benzene-1-sulfonamide] | 6.3
